Measured values taken from article PMC5522996, “Big conductance calcium‐activated potassium channel openers control spasticity without sedation” (British Journal of Pharmacology, 2017).

Columns and labels:
mouse vas deferens = experiment: Electrically‐evoked contraction of the mouse vas deferens; assay type: cell-based
Protocol: Vasa deferentia were obtained from outbred MF‐1 mice and mounted vertically in a 4 mL organ bath at an initial tension of 0.5 g. The baths contained Mg^2+‐free Krebs solution (NaCl 118.2 mM, KCl 4.75 mM, KH2PO4 1.19 mM, NaHCO3 25.0 mM, glucose 11.0 mM and CaCl2·6H2O 2.54 mM), which was kept at 35–36°C and bubbled with 95% O2 and 5% CO2. […] Contractions were monitored by a computer using a data recording and analysis system as described previously (Ross et al., 2001). After placement in an organ bath, each tissue was subjected to a stimulation‐free period of 10 min and then stimulated for 10 min. Tissues were then subjected to alternate periods of stimulation (5 min) and rest (10 min) until consistent twitch amplitudes were obtained. This equilibration procedure was followed by a stimulation‐free period of 25 min. Tissues were then stimulated for 5 min after which the first agonist addition was made and stimulation continued until the end of the experiment.

ABH mice [1] = experiment: Open‐field activity monitoring (hypomotility); assay type: in vivo, mouse; settings: 1 mg·kg^−1 i.v., 30 min after administration
Protocol: Motor activity was assessed using 27.9 × 27.9 cm open field activity monitor chambers and computer software (Med Associates Inc, St. Albans, VT, USA.). This was typically performed in a darkened room. Recordings were initiated once the mouse entered the chamber and continued for 5 min. These chambers, allowing four simultaneous recordings of individual mice and were fitted with infrared beams that could detect movement in the X, Y planes. The total distance travelled (cm) was recorded. Results are expressed as mean ± SEM. These were analysed by Student's paired t‐test or a one‐way ANOVA with Bonferroni post hoc test, using SigmaStat V3/Sigmaplot V9 or V11 software (Systat Ltd Hounslow, UK. Al‐Izki et al., 2012).

[2] = tested on: spastic ABH mice with EAE; experiment: Spasticity: resistance to hindlimb flexion against a strain gauge; settings: 1 mg·kg^−1 i.v., racemate
[3] = tested on: CB1 receptor‐deficient ABH mice; experiment: Spasticity in CB1 receptor‐deficient mice; assay type: in vivo, mouse; settings: 5 mg·kg^−1 i.v., 30 min (Figure 5A)
mice = experiment: Visible sedation, behaviour and tolerability in mice; settings: 1 mg·kg^−1 i.v.
ABH mice [4] = experiment: Temperature testing (hypothermia); assay type: in vivo, mouse
Protocol: These recordings were assessed 20 min following administration of compounds. Results are expressed as mean ± SEM, and were analysed by Student's t‐test or a one‐way ANOVA with Bonferroni post hoc test using Sigma/StatV3/Sigmpaplot V9 or V11 software (Pryce et al., 2014).

In the case of `CC(CO)NC(=O)c1cccc(C=CCCCC(=O)N(C)C)c1` (centres unmarked) [VSN16, 3‐(6‐(dimethylamino)‐6‐oxohex‐1‐enyl)‐N‐(1‐hydroxypropan‐2‐yl)benzamide], the EC50 (mouse vas deferens; Mus musculus, read-out: EC50, inhibition of electrically‐evoked contraction) is reported as ~10 nM, the “Antagonism of the action by SR141716A” value (mouse vas deferens; pre‐incubation of 31.6 nM SR141617A) is reported as “antagonized” and the “Hypomotility in open field” value (ABH mice [1]) is reported as “did not induce”. The Inhibition of spasticity [2] was “significantly inhibit spasticity”, the Inhibition of spasticity [3] was “significantly inhibit spasticity” and the “Visible signs of sedation” value (mice) was “failed to induce visible signs of sedation”. For the same compound, the Hypothermia (ABH mice [4]; 1 mg·kg^−1 i.v., 20 min after administration) was “did not induce” and the “Cannabimimetic effects after injection directly into the CNS” value (ABH mice [4]; intracerebral (i.c.) route) was “failed to induce cannabimimetic effects”.
